# Tests used:
# [1] = target: T1, GK-GKRP (glucokinase / glucokinase regulatory protein) (Homo sapiens, UniProt Q14397); assay: GKRP LC MS/MS Biochemical Assay (LCMS/MS); details: formation of 13C-glucose-6-phosphate from 13C-glucose by LC MS/MS, human His-hepatic GK, fructose-6-phosphate
# T1 sequence (Q14397 1-625): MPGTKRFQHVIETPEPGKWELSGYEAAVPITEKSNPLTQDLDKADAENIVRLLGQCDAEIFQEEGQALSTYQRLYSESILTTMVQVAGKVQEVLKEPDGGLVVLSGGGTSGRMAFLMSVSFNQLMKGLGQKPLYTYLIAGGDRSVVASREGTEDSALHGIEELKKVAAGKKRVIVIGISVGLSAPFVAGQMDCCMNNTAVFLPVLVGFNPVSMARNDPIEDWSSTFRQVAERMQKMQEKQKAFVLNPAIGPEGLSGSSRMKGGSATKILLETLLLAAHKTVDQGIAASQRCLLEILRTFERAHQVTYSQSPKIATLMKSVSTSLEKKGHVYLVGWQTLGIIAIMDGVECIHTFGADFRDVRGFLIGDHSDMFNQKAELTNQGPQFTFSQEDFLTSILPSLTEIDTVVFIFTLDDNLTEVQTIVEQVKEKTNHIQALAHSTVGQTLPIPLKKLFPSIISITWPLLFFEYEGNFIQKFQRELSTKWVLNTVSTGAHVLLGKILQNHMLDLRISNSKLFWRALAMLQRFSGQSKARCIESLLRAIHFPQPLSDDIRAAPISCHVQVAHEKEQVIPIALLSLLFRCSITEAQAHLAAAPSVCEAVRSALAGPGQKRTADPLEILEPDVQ
# Experimental: GKRP LC MS/MS Biochemical Assay (LCMS/MS)
# This assay is used to directly measure the formation of ^13C-glucose-6-phosphate from ^13C-glucose by LC MS/MS. Begin by preparing the following solutions: Compound Buffer (CB): 50 mM Tris, pH 7.5/4 mM MgCl2/6% DMSO/fresh 10 mM DTT from 1M frozen stock. Enzyme Buffer (EB): 50 mM Tris, pH 7.5/4 mM MgCl2/6% DMSO/fresh 0.1% BSA/fresh 0.01% Brij-35 (10% BSA and 1% Brij-35 stock). GK (Glucokinase) Working Stock (5×): Dilute human His-hepatic GK to 30 nM in EB buffer. […] Seal the plate and incubate for 30 minutes at room temperature while mixing. After 30 minutes add 10 μl of GK Working Stock (5×). Re-seal the plate and incubate for another 30 minutes at room temperature while mixing. After the second 30 minutes, stop the reaction by the addition of 50 μl of 100% acetonitrile, seal, and mix for 5-10 minutes. Run 10 μl of this sample through the LC MS/MS (API 3200, Applied Biosystems, Carlsbad, Calif.). […]
# (§1) In the Examples, the assays are referred to as “LCMS/MS” or “Binding.”
# [2] = target: T2, GK-GKRP (interaction between glucokinase and glucokinase regulatory protein) (Homo sapiens, UniProt Q14397); assay: GK-GKRP Binding Assay (Binding), AlphaScreen; details: avi-tagged GKRP, GK-fluorescein, AlphaScreen beads, 1 μM sorbitol-6-phosphate; read-out: GK-GKRP IC50 (Binding)
# T2 construct: made in house; host or cells: GKRP: baculovirus system
# T2 sequence (Q14397 1-625): T1 sequence (Q14397 1-625)
# Experimental: GK-GKRP Binding Assay Protocol (Binding)
# This assay is used to directly measure the interaction between glucokinase (GK) and glucokinase regulatory protein (GKRP). Begin by preparing the following solutions. Assay Buffer: 20 mM Tris, pH 7.5/0.05% BSA/1 mM DTT/1 μM sorbitol-6-phosphate. […] Combine the following reagents in a white 96-well half area plate. Pipette 14 μl of the diluted avi-tagged GKRP into each well. Add 1 μl of compound to be tested and incubate at room temperature for 20 minutes. After 20 minutes, add 5 μl of assay buffer containing 6 nM GK-fluorescein. […] Incubate in a dark room for 2 hours at room temperature. After 2 hours read the plate using an Envision plate reader (Perkin Elmer, Waltham Mass.).
# Recombinant human glucokinase (hepatic) was purified and formulated in 50 mM Tris (pH 7.5), 150 mM NaCl and 20 mM glucose previous to labeling with fluorescein. […] Unreacted dye was removed by extensive dialysis into the final formulation buffer: 25 mM Tris (pH 7.2), 150 mM NaCl, 10% glycerol and 2 mM DTT. The human glucokinase regulatory protein construct was designed with a C-terminal avitag and was expressed in a baculovirus system. Purified GKRP was incubated overnight with recombinant biotin ligase in the presence of D-biotin, ATP and MgCl2. GKRP was isolated from reaction components by chromatography on a Superdex 200 size exclusion column into: 50 mM HEPES, 150 mM NaCl and 5 mM DTT. […] Proteins were quantitated according to their calculated molar extinction coefficients at A280 and were stored at −80° C.
# as §1
SMILES,EC50 [1] [nM],IC50 [2] [nM]
"COc1ccccc1[C@H](NS(=O)(=O)c1ccc2c(c1)OCCCO2)c1cc2ccccc2s1 (single isomer, unassigned) [Example 40 Peak #1]",130,360
"CCCc1ccccc1C(NS(=O)(=O)c1ccc2c(c1)OCCCO2)c1cc2ccccc2o1 (racemic) [Example 11, N-(1-benzofuran-2-yl(2-propylphenyl)methyl)-3,4-dihydro-2H-1,5-benzodioxepine-7-sulfonamide]",1700,1800
"CSc1ccccc1[C@@H](NS(=O)(=O)c1ccc2c(c1)OCCCO2)c1nc2cccnc2s1 (single isomer, unassigned) [Example 65 Peak #2]",15,7
"CCc1ccccc1[C@@H](NS(=O)(=O)c1ccc2c(c1)OCCCO2)c1cc2ccccc2s1 (single isomer, unassigned) [Example 37 Peak #2]",38,130
"C#Cc1ccccc1C(NS(=O)(=O)c1ccc2c(c1)OCCCO2)c1cc2ccccc2s1 (racemic) [Example 39, N-(1-benzothiophen-2-yl(2-ethynylphenyl)methyl)-3,4-dihydro-2H-1,5-benzodioxepine-7-sulfonamide]",37,17
"O=S(=O)(NC(c1nc2cccnc2s1)c1ccccc1Cl)c1ccc2c(c1)OCCCO2 (racemic) [Example 68, N-((2-chlorophenyl)([1,3]thiazolo[5,4-b]pyridin-2-yl)methyl)-3,4-dihydro-2H-1,5-benzodioxepine-7-sulfonamide]",63,54
"CSc1ccccc1C(NS(=O)(=O)c1ccc2c(c1)OCCCO2)c1cc2ccncc2s1 (racemic) [Example 64, N-((2-(methylsulfanyl)phenyl)(thieno[2,3-c]pyridin-2-yl)methyl)-3,4-dihydro-2H-1,5-benzodioxepine-7-sulfonamide]",20,4
"O=S(=O)(N[C@H](c1ccccc1)c1cc2cccc(-c3ccccn3)c2s1)c1ccc2c(c1)OCCCO2 (single isomer, unassigned) [Example 71 Peak #2]",120,350
"Cc1c(C(NS(=O)(=O)c2ccc3c(c2)OCCCO3)c2ccccc2)oc2ccccc12 (racemic) [Example 44, N-((3-methyl-1-benzofuran-2-yl)(phenyl)methyl)-3,4-dihydro-2H-1,5-benzodioxepine-7-sulfonamide]",480,1000
"COc1ccccc1C(NS(=O)(=O)c1ccc2c(c1)OCCCO2)c1nc2cccnc2s1 (racemic) [Example 67, N-((2-methoxyphenyl)([1,3]thiazolo[5,4-b]pyridin-2-yl)methyl)-3,4-dihydro-2H-1,5-benzodioxepine-7-sulfonamide]",95,58
"O=S(=O)(NC(c1ccccc1)c1cc2ccccc2o1)c1ccc2c(c1)OCC(F)CO2 (racemic) [Example 35, N-(1-benzofuran-2-yl(phenyl)methyl)-3-fluoro-3,4-dihydro-2H-1,5-benzodioxepine-7-sulfonamide]",3100,2300
"O=S(=O)(N[C@@H](c1ccccc1)c1cc2ccccc2s1)c1ccc2c(c1)OCCCO2 (single isomer, unassigned) [Example 57 Peak #1]",700,3000

# The next lines start with the values.
EC50 [1] [nM],IC50 [2] [nM],SMILES
46,110,"COc1ccccc1C(NS(=O)(=O)c1ccc2c(c1)OCCCO2)c1cc2ccccc2s1 (racemic) [Example 40, N-(1-benzothiophen-2-yl(2-methoxyphenyl)methyl)-3,4-dihydro-2H-1,5-benzodioxepine-7-sulfonamide]"
1600,4600,"O=S(=O)(NC(c1cc2ccccc2o1)c1ccccc1CO)c1ccc2c(c1)OCCCO2 (racemic) [Example 15, N-(1-benzofuran-2-yl(2-(hydroxymethyl)phenyl)methyl)-3,4-dihydro-2H-1,5-benzodioxepine-7-sulfonamide]"
1000,1200,"O=S(=O)(NC(c1ccccc1)c1cc2cccc(-c3ccccc3)c2s1)c1ccc2c(c1)OCCCO2 (racemic) [Example 73, N-(phenyl(7-phenyl-1-benzothiophen-2-yl)methyl)-3,4-dihydro-2H-1,5-benzodioxepine-7-sulfonamide]"
460,1400,"Cc1ccc(F)cc1C(NS(=O)(=O)c1ccc2c(c1)OCCCO2)c1cc2ccccc2o1 (racemic) [Example 4, N-(1-benzofuran-2-yl(5-fluoro-2-methylphenyl)methyl)-3,4-dihydro-2H-1,5-benzodioxepine-7-sulfonamide]"
440,1800,"Cc1cc(F)ccc1C(NS(=O)(=O)c1ccc2c(c1)OCCCO2)c1cc2ccccc2o1 (racemic) [Example 3, N-(1-benzofuran-2-yl(4-fluoro-2-methylphenyl)methyl)-3,4-dihydro-2H-1,5-benzodioxepine-7-sulfonamide]"
38,160,"CSc1ccccc1C(NS(=O)(=O)c1ccc2c(c1)OCCCO2)c1cc2ccccc2o1 (racemic) [Example 19, N-(1-benzofuran-2-yl(2-(methylsulfanyl)phenyl)methyl)-3,4-dihydro-2H-1,5-benzodioxepine-7-sulfonamide]"
29,20,"O=S(=O)(N[C@@H](c1nc2cccnc2s1)c1ccccc1Cl)c1ccc2c(c1)OCCCO2 (single isomer, unassigned) [Example 68 Peak #2]"
1600,1200,"Nc1cccc(C(NS(=O)(=O)c2ccc3c(c2)OCCCO3)c2cc3ccccc3o2)c1 (racemic) [Example 14, N-((3-aminophenyl)(1-benzofuran-2-yl)methyl)-3,4-dihydro-2H-1,5-benzodioxepine-7-sulfonamide]"
17,7,"C[C@@](O)(c1ccnc(-c2cccc3cc([C@H](NS(=O)(=O)c4ccc5c(c4)OCCCO5)c4ccccc4)sc23)c1)C(F)(F)F (single isomer, unassigned) [Example 70 Peak #1]"
220,360,"O=S(=O)(NC(c1ccccc1)c1cc2cccnc2s1)c1ccc2c(c1)OCCCO2 (racemic) [Example 46, N-(phenyl(thieno[2,3-b]pyridin-2-yl)methyl)-3,4-dihydro-2H-1,5-benzodioxepine-7-sulfonamide]"
47,41,"COc1cccnc1C(NS(=O)(=O)c1ccc2c(c1)OCCCO2)c1cc2ccccc2s1 (racemic) [Example 43, N-(1-benzothiophen-2-yl(3-methoxy-2-pyridinyl)methyl)-3,4-dihydro-2H-1,5-benzodioxepine-7-sulfonamide]"
790,1000,"Cc1cccc(F)c1C(NS(=O)(=O)c1ccc2c(c1)OCCCO2)c1cc2ccccc2o1 (racemic) [Example 5, N-(1-benzofuran-2-yl(2-fluoro-6-methylphenyl)methyl)-3,4-dihydro-2H-1,5-benzodioxepine-7-sulfonamide]"
6100,1200,"COc1ccccc1[C@H](NS(=O)(=O)c1ccc2c(c1)OCCCO2)c1cc2ccccc2o1 (single isomer, unassigned) [Example 17 Peak #1]"
